In US20240307547A1, “NOVEL COMPOUNDS WHICH BIND TO CEREBLON, AND METHODS OF USE THEREOF” (Captor Therapeutics S.A., priority 2020, published 2024):
Values belong to the molecule of their own block, whether it stands above or below them.

How the values were obtained:
SALL4 = SALL4 degradation assay, Kelly cell line (western blot densitometry); assay type: cell-based; settings: Kelly cells, after 24 h
Method: Kelly cells were maintained in RPMI-1640 medium, supplemented with penicillin/streptomycin and 10% Fetal Bovine Serum (FBS). Cells were seeded on 6-well plates, and the compounds to be tested were added at the desired concentration range. Final DMSO concentration was 0.25%. After 24 h incubation (37° C., 5% CO2), cells were washed and cell lysates were prepared using RIPA lysis buffer. The amount of protein was determined via BCA assay, and the appropriate quantity was then loaded on the precast gel for the protein separation. After primary and secondary antibody staining, the membranes were washed and signals developed. The densitometry analysis was implemented to obtain the numeric values used later in the protein level evaluation process.
Densitometry values are normalized to the loading control (β-ACTIN) and presented as % of DMSO control in Table 2, below, using the following labels: • ≤25% for 0-25% of SALL4 protein reduction, • >25% for 26-74% of SALL4 protein reduction, • ≥75% for 75-100% of SALL4 protein reduction.

[1] = target: CRBN-DDB1 protein complex (Homo sapiens, UniProt Q96SW2); assay: Fluorescence polarization (FP) assay, displacement of Cy5-labelled thalidomide; settings: read-out: CRBN binding Ki; further: 25 nM CRBN-DDB1
CRBN-DDB1 protein complex, sequence (Q96SW2 whole entry): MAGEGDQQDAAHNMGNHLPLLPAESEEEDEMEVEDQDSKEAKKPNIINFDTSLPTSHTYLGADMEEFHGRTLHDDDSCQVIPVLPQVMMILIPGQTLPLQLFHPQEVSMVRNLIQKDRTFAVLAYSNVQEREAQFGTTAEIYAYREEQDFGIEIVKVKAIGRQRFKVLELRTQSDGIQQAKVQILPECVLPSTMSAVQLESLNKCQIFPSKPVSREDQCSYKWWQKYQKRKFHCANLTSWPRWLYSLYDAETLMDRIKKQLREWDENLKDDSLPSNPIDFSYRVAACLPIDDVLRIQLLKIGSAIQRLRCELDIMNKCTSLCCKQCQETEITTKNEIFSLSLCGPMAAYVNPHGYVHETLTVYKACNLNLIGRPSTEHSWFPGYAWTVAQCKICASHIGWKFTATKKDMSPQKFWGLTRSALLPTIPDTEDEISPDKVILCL
CRBN-DDB1 protein complex, sequence (Q16531 whole entry partner): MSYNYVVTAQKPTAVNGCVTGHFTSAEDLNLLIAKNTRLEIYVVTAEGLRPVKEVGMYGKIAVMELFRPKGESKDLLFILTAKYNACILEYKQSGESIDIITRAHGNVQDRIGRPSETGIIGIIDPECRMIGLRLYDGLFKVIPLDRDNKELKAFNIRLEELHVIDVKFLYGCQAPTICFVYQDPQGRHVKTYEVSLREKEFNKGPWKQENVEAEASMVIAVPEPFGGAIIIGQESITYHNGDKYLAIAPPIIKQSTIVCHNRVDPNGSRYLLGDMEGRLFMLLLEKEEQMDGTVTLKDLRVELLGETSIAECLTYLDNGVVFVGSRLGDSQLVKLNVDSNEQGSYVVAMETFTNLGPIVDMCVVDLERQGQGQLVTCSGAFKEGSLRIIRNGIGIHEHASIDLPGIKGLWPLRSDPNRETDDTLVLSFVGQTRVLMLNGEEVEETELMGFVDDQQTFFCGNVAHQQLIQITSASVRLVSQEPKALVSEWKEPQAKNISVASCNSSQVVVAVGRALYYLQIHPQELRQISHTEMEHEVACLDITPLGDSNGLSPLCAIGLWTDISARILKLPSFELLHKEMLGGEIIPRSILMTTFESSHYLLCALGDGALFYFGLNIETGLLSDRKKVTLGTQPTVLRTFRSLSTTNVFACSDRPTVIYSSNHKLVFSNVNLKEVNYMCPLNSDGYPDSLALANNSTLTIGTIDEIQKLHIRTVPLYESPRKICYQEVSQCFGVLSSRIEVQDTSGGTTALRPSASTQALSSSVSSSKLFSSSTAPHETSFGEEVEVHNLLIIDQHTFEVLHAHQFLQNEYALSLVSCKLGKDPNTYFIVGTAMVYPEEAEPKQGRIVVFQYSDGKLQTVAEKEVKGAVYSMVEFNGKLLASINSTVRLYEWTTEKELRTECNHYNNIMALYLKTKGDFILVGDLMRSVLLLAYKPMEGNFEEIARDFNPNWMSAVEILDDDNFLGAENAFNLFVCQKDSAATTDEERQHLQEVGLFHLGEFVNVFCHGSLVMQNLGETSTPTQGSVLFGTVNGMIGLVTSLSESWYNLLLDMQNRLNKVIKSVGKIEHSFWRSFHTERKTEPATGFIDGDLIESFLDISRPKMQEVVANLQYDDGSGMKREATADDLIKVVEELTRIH
Method: The test solution was added to a 384-well assay plate.
The plate was spun-down (1 min, 1000 rpm, 22° C.) and then shaken using a VibroTurbulator for 10 min at room temperature (20-25° C.), with the frequency set to level 3. The assay plate with protein and the tracer was incubated for 60 min at room temperature (20-25° C.) prior to read-out with a plate reader.
The FP experiment was carried out with various concentrations of the test compounds in order to measure Ki values.

IKZF1 = IKZF1 degradation assay, H929 cell line (western blot densitometry); assay type: cell-based; settings: H929 cells, after 24 h
Method: (§1) H929 cells were maintained in RPMI-1640 medium, supplemented with penicillin/streptomycin, 10% Fetal Bovine Serum (FBS) and 0.05 mM 2-Mercaptoethanol. Cells were seeded on 6- or 12-well plates, and the compounds to be tested were added at the desired concentration range. Final DMSO concentration was 0.25%. After 24 h incubation (37° C., 5% CO2), cells were harvested, washed and cell lysates were prepared using RIPA lysis buffer. The amount of protein was determined via BCA assay, and the appropriate quantity was then loaded on the precast gel for the protein separation. After primary and secondary Ab staining, the membranes were washed and signals developed. The densitometry analysis was implemented to obtain the numeric values used later in the protein level evaluation process.
Densitometry values are normalized to the loading control (β-ACTIN) and presented as % of DMSO control in Table 3, below, using the following labels: • ≤25% for 0-25% of IKZF1 protein reduction, • >25% for 26-74% of IKZF1 protein reduction, • ≥75% for 75-100% of IKZF1 protein reduction.

IKZF3 = IKZF3 degradation assay, H929 cell line (western blot densitometry); assay type: cell-based; settings: H929 cells, after 24 h
Method: as §1, with “penicillin/streptomycin and” for “penicillin/streptomycin,”
Densitometry values are normalized to the loading control (β-ACTIN) and presented as % of DMSO control in Tables 4A and 4B, below, using the following labels: • ≤25% for 0-25% of IKZF3 protein reduction, • >25% for 26-74% of IKZF3 protein reduction, • ≥75% for 75-100% of IKZF3 protein reduction.

H929 (myeloma) = assay: Viability, CTG (CellTiter-Glo) assay; assay type: cell-based; settings: Homo sapiens, NCI-H929, H929, 72 hours, 100% = DMSO, read-out: Average of % viability of quadruplicate
Method: Three thousand cells in 50 μL of culture medium were plated in 384-well plate, and incubated with 50, 13, and 2 μM of each compound for 72 hours. ATP content in the remaining cells after the treatment was quantitated with the CellTiter-Glo Luminescent Viability Assay Kit (Promega). The activity of the compound at each concentration was shown as percentage viability; 100% viability was the ATP content in the cells incubated with DMSO, the carrier of the compounds.

SMILES: Cc1nc2cccc(N)c2c(=O)n1C1CCC(=O)NC1=O (stereo not drawn) [CC-122]
% of SALL4 protein reduction (SALL4; at 1 μM): ≥75% (≥75% for 75-100% of SALL4 protein reduction) | % of SALL4 protein reduction (SALL4; at 10 μM): ≥75% (≥75% for 75-100% of SALL4 protein reduction) | % of SALL4 protein reduction (SALL4; at 20 μM): ≥75% (≥75% for 75-100% of SALL4 protein reduction)

SMILES: Cc1nc2c(cnn2C)cc1C1CCC(=O)NC1=O (stereo not drawn) [Compound 4, 3-(1,6-dimethyl-1H-pyrazolo[3,4-b]pyridin-5-yl)piperidine-2,6-dione]
Ki [1]: 1 to 5 µM

SMILES: Cc1nc2ccc([N+](=O)[O-])cc2cc1C1CCC(=O)NC1=O (stereo not drawn) [Compound 5, 3-(2-methyl-6-nitroquinolin-3-yl)piperidine-2,6-dione]
Ki [1]: 5 to 10 µM

SMILES: Cc1nc2cc([N+](=O)[O-])ccc2cc1C1CCC(=O)NC1=O (stereo not drawn) [Compound 6, 3-(2-methyl-7-nitroquinolin-3-yl)piperidine-2,6-dione]
Ki [1]: 5 to 10 µM

SMILES: Cc1nc2c([N+](=O)[O-])cccc2cc1C1CCC(=O)NC1=O (stereo not drawn) [Compound 7, 3-(2-methyl-8-nitroquinolin-3-yl)piperidine-2,6-dione]
Ki [1]: 1 to 5 µM

SMILES: Cc1nc2cc(C(=O)N[C@@H](C)C3CCCCC3)ccc2cc1C1CCC(=O)NC1=O (stereo partly drawn) [Compound 9, N—((S)-1-cyclohexylethyl)-3-(2,6-dioxopiperidin-3-yl)-2-methylquinoline-7-carboxamide]
Ki [1]: 1 to 5 µM

SMILES: O=C1CCC(c2cnc3cccc([N+](=O)[O-])c3c2)C(=O)N1 (stereo not drawn) [Compound 12, 3-(5-nitroquinolin-3-yl)piperidine-2,6-dione]
Ki [1]: 1 to 5 µM

SMILES: Cc1nc2ccccc2cc1C1CCC(=O)NC1=O (stereo not drawn) [Compound 13, 3-(2-methylquinolin-3-yl)piperidine-2,6-dione]
Ki [1]: 1 to 5 µM

SMILES: Cc1nc2c(NS(=O)(=O)c3ccccc3OC(F)(F)F)cccc2cc1C1CCC(=O)NC1=O (stereo not drawn) [Compound 20, N-(3-(2,6-dioxopiperidin-3-yl)-2-methylquinolin-8-yl)-2-(trifluoromethoxy)benzenesulfonamide]
Ki [1]: 1 to 5 µM

SMILES: Cc1nc2c(Cl)cccc2cc1C1CCC(=O)NC1=O (stereo not drawn) [Compound 21, 3-(8-chloro-2-methylquinolin-3-yl)piperidine-2,6-dione]
Ki [1]: 1 to 5 µM

SMILES: O=C1CCC(N2C(=O)c3ccccc3C2=O)C(=O)N1 (stereo not drawn) [Thalidomide, reference compound]
% of SALL4 protein reduction (SALL4; at 1 μM): >25% (>25% for 26-74% of SALL4 protein reduction) | % of SALL4 protein reduction (SALL4; at 10 μM): >25% (>25% for 26-74% of SALL4 protein reduction) | % of SALL4 protein reduction (SALL4; at 20 μM): ≥75% (≥75% for 75-100% of SALL4 protein reduction) | % of IKZF1 protein reduction (IKZF1; at 1 μM): ≤25% (≤25% for 0-25% of IKZF1 protein reduction) | % of IKZF1 protein reduction (IKZF1; at 10 μM): ≤25% (≤25% for 0-25% of IKZF1 protein reduction) | % of IKZF1 protein reduction (IKZF1; at 20 μM): >25% (>25% for 26-74% of IKZF1 protein reduction) | % of IKZF3 (bottom band) protein reduction (IKZF3; at 1 μM): ≤25% (≤25% for 0-25% of IKZF3 protein reduction) | % of IKZF3 (upper band) protein reduction (IKZF3; at 1 μM): ≤25% (≤25% for 0-25% of IKZF3 protein reduction) | % of IKZF3 (bottom band) protein reduction (IKZF3; at 10 μM): ≤25% (≤25% for 0-25% of IKZF3 protein reduction) | % of IKZF3 (upper band) protein reduction (IKZF3; at 10 μM): ≤25% (≤25% for 0-25% of IKZF3 protein reduction) | % of IKZF3 (bottom band) protein reduction (IKZF3; at 20 μM): >25% (>25% for 26-74% of IKZF3 protein reduction) | % of IKZF3 (upper band) protein reduction (IKZF3; at 20 μM): >25% (>25% for 26-74% of IKZF3 protein reduction)

Now from value to molecule, other results behind:

Ki [1]: 1 to 5 µM
SMILES: Cc1nc2cccc(N)c2cc1C1CCC(=O)NC1=O (stereo not drawn) [Compound 1, 3-(5-amino-2-methylquinolin-3-yl)piperidine-2,6-dione]
% of SALL4 protein reduction (SALL4; at 1 μM): ≤25% (≤25% for 0-25% of SALL4 protein reduction) | % of SALL4 protein reduction (SALL4; at 10 μM): >25% (>25% for 26-74% of SALL4 protein reduction) | % of SALL4 protein reduction (SALL4; at 20 μM): >25% (>25% for 26-74% of SALL4 protein reduction) | % of IKZF1 protein reduction (IKZF1; at 1 μM): >25% (>25% for 26-74% of IKZF1 protein reduction) | % of IKZF1 protein reduction (IKZF1; at 10 μM): ≥75% (≥75% for 75-100% of IKZF1 protein reduction) | % of IKZF1 protein reduction (IKZF1; at 20 μM): ≥75% (≥75% for 75-100% of IKZF1 protein reduction) | % of IKZF3 (bottom band) protein reduction (IKZF3; at 1 μM): >25% (>25% for 26-74% of IKZF3 protein reduction) | % of IKZF3 (upper band) protein reduction (IKZF3; at 1 μM): >25% (>25% for 26-74% of IKZF3 protein reduction) | % of IKZF3 (bottom band) protein reduction (IKZF3; at 10 μM): ≥75% (≥75% for 75-100% of IKZF3 protein reduction) | % of IKZF3 (upper band) protein reduction (IKZF3; at 10 μM): ≥75% (≥75% for 75-100% of IKZF3 protein reduction) | % of IKZF3 (bottom band) protein reduction (IKZF3; at 20 μM): ≥75% (≥75% for 75-100% of IKZF3 protein reduction) | % of IKZF3 (upper band) protein reduction (IKZF3; at 20 μM): ≥75% (≥75% for 75-100% of IKZF3 protein reduction) | viability at 2 µM (H929 (myeloma); at 2 μM): 61.2% | viability at 13 µM (H929 (myeloma); at 13 μM): 47.5% | viability at 50 µM (H929 (myeloma); at 50 μM): 32.9%

Ki [1]: 1 to 5 µM
SMILES: Cc1nc2cccc([N+](=O)[O-])c2cc1C1CCC(=O)NC1=O (stereo not drawn) [Compound 2, 3-(2-methyl-5-nitroquinolin-3-yl)piperidine-2,6-dione]

Ki [1]: 1 to 5 µM
SMILES: Cc1nc2cccc(F)c2cc1C1CCC(=O)NC1=O (stereo not drawn) [Compound 3, 3-(5-fluoro-2-methylquinolin-3-yl)piperidine-2,6-dione]

Ki [1]: < 1 µM
SMILES: Cc1nc2cc(N)ccc2cc1C1CCC(=O)NC1=O (stereo not drawn) [Compound 8, 3-(7-amino-2-methylquinolin-3-yl)piperidine-2,6-dione]

Ki [1]: < 1 µM
SMILES: Cc1nc2c(N)cccc2cc1C1CCC(=O)NC1=O (stereo not drawn) [Compound 10, 3-(8-amino-2-methylquinolin-3-yl)piperidine-2,6-dione]

Ki [1]: < 1 µM
SMILES: Cc1nc2ccc(N)cc2cc1C1CCC(=O)NC1=O (stereo not drawn) [Compound 11, 3-(6-amino-2-methylquinolin-3-yl)piperidine-2,6-dione]

Ki [1]: < 1 µM
SMILES: Nc1cccc2ncc(C3CCC(=O)NC3=O)cc12 (stereo not drawn) [Compound 14, 3-(5-aminoquinolin-3-yl)piperidine-2,6-dione]

Ki [1]: < 1 µM
SMILES: Cc1ccc(NC(=O)NCc2ccc3cc(C4CCC(=O)NC4=O)c(C)nc3c2)cc1Cl (stereo not drawn) [Compound 15, 1-(3-chloro-4-methylphenyl)-3-{[3-(2,6-dioxopiperidin-3-yl)-2-methylquinolin-7-yl]methyl}urea]

Ki [1]: < 1 µM
SMILES: Cc1nc2cc(CNC(=O)C(F)(F)c3ccc(Cl)cc3)ccc2cc1C1CCC(=O)NC1=O (stereo not drawn) [Compound 16, 2-(4-chlorophenyl)-N-{[3-(2,6-dioxopiperidin-3-yl)-2-methylquinolin-7-yl]methyl}-2,2-difluoroacetamide]

Ki [1]: < 1 µM
SMILES: Cc1nc2cccc(NS(=O)(=O)c3ccccc3OC(F)(F)F)c2cc1C1CCC(=O)NC1=O (stereo not drawn) [Compound 17, N-(3-(2,6-dioxopiperidin-3-yl)-2-methylquinolin-5-yl)-2-(trifluoromethoxy)benzenesulfonamide]

Ki [1]: < 1 µM
SMILES: Cc1nc2ccc(NS(=O)(=O)c3ccccc3OC(F)(F)F)cc2cc1C1CCC(=O)NC1=O (stereo not drawn) [Compound 18, N-(3-(2,6-dioxopiperidin-3-yl)-2-methylquinolin-6-yl)-2-(trifluoromethoxy)benzenesulfonamide]

Ki [1]: < 1 µM
SMILES: Cc1nc2cc(NS(=O)(=O)c3ccccc3OC(F)(F)F)ccc2cc1C1CCC(=O)NC1=O (stereo not drawn) [Compound 19, N-(3-(2,6-dioxopiperidin-3-yl)-2-methylquinolin-7-yl)-2-(trifluoromethoxy)benzenesulfonamide]
